Results published in article PMC9405102, “Targeted Modification and Structure-Activity Study of GL-29, an Analogue of the Antimicrobial Peptide Palustrin-2ISb” (Antibiotics, 2022).
Read-outs that look alike come from different tables or passages of the source. Where no end group is shown, it is not given here.

Experiments:
MRSA (B038 V1S1 A) = format: cell-based, methicillin-resistant S. aureus
Method: (§1) The antimicrobial activity of the peptides was determined through the minimum inhibitory concentrations (MICs) and the minimum bactericidal concentration (MBCs) using the broth-dilution method in a 96-well plate, as described in the previous study. Six bacteria, including the Gram-positive bacteria, S. aureus (ATCC CRM 6538), MRSA (ATCC CRM 12493) and E. faecalis (NCTC 12697), the Gram-negative bacteria, E. coli (ATCC CRM 8739), K. pneumoniae (ATCC CRM 43816) and P. aeruginosa (ATCC CRM 9027), the yeast, C. albicans (ATCC CRM 10231) and clinical isolates, S. aureus (B042 V2E1 A), MRSA (B038 V1S1 A), E. coli (ATCC BAA-2340) and K. pneumoniae (ATCC BAA-1705) were used in these assays to evaluate the antimicrobial potency of the two peptides by determining their MICs and MBCs. All bacteria were cultured in MHB and the yeast, C. albicans was cultured in YPD broth overnight. Then, the microorganisms were sub-cultured and diluted to the final concentration of 2 × 10^5 CFU/mL to 5 × 10^5 CFU/mL. The Norfloxacin and amphotericin B were used as positive controls for the bacteria and yeast, respectively. The assay was repeated three times, with five replicates at each time.

MRSA (ATCC CRM 12493) [1] = format: cell-based, methicillin-resistant S. aureus
Method: as §1

MRSA (ATCC CRM 12493) [2] = format: cell-based, methicillin-resistant S. aureus; remark: listed apart in the source
Method: (§2) The MBIC and MBEC assays were performed to measure the inhibition and eradication of bacterial biofilm in the presence of different concentrations of peptides. Gram-positive bacteria were inoculated in Luria–Bertani (LB) broth at 37 °C overnight whereas Gram-negative bacteria were inoculated in tryptic soy broth (TSB), and then sub-cultured until reaching the logarithmic growth phase by measuring the OD values at a wavelength of 550nm. For the MBIC assay, 99 µL of diluted bacterial suspension (5 × 10^5 CFU/mL) was mixed with 1 µL of prepared peptide solutions in the wells of a round-bottomed 96-well plate, achieving the final concentrations from 512 to 1 µM, and then incubated at 37 °C for 24 h in a shaking incubator at 200 revolutions per minute (rpm). After this, the plate was washed twice by PBS and fixed with methanol for 30 min. For MBEC assay, 100 µL of diluted bacterial suspension (5 × 10^5 CFU/mL) was seeded into a round-bottomed 96-well plate and incubated at 37 °C for 24 h in a shaking incubator at 200 rpm to obtain mature biofilm. After this, plates were washed twice by PBS and incubated with different concentrations of peptide solution from 512 to 1 µM at 37 °C for 24 h. Afterwards, the plate was washed twice with PBS and fixed with methanol for 30 min. Then, both MBIC and MBEC plates were stained by 130 μL of 0.1% (g/v) crystal violet solutions for 30 min and washed with PBS until no apparent staining was observed. Evaporating crystal violet stains were dissolved by 33% (v/v) acetic acid, and the absorbance values were measured by a Synergy HT Microplate Reader (BioTek, Minneapolis, MN, USA) set to 595 nm. The minimum concentration that inhibited the formation of biofilm was defined when compared to the negative control group, as the MBIC. The minimum concentration that eradicated the biofilm was defined, when compared to the negative control group, as the MBEC. The biofilm assays were performed in triplicate.

E. coli (ATCC BAA-2340) = format: cell-based, Escherichia coli
Method: as §1

E. coli (ATCC CRM 8739) [3] = format: cell-based, Escherichia coli
Method: as §1

[4] = system: S. aureus (ATCC CRM 6538); format: cell-based, Staphylococcus aureus
Method: as §2

E. faecalis (NCTC 12697) [5] = format: cell-based, Enterococcus faecalis
Method: as §1

[6] = system: K. pneumoniae (ATCC CRM 43816); format: cell-based, Klebsiella pneumoniae
Method: as §2

[7] = system: S. aureus (ATCC CRM 6538); format: cell-based, Staphylococcus aureus; remark: listed apart in the source
Method: as §1

S. aureus (B042 V2E1 A) = format: cell-based, Staphylococcus aureus
Method: as §1

[8] = system: C. albicans (ATCC CRM 10231); format: cell-based, Candida albicans
Method: as §1

E. coli (ATCC CRM 8739) [9] = format: cell-based, Escherichia coli; remark: listed apart in the source
Method: as §2

[10] = system: P. aeruginosa (ATCC CRM 9027); format: cell-based, Pseudomonas aeruginosa
Method: as §2

[11] = system: K. pneumoniae (ATCC BAA-1705); format: cell-based, Klebsiella pneumoniae
Method: as §1

[12] = system: K. pneumoniae (ATCC CRM 43816); format: cell-based, Klebsiella pneumoniae; remark: listed apart in the source
Method: as §1

E. faecalis (NCTC 12697) [13] = format: cell-based, Enterococcus faecalis; remark: listed apart in the source
Method: as §2

[14] = system: P. aeruginosa (ATCC CRM 9027); format: cell-based, Pseudomonas aeruginosa; remark: listed apart in the source
Method: as §1

horse erythrocytes = format: cell-based
Method: The haemolysis assays were performed by incubating prewashed erythrocyte suspension obtained from fresh defibrinated horse blood (TCS Biosciences Ltd., Buckingham, UK) with a range of peptides at final concentrations from 512 to 1 μM, for 2 h at 37 °C. The red cell suspensions were washed with phosphate-buffered saline (PBS) until the supernatant was clear and then diluted with PBS to form a 2% cell suspension. Peptides were 2-fold diluted by the 2% cell suspension to reach the final concentration range from 512 to 1 μM. The haemolysis of the cell suspensions with either 1% (v/v) Triton X-100 or PBS, were considered as positive controls and negative controls, respectively. After incubation, the extent of haemolysis was determined by measuring the absorbance of the supernatant from each sample at 570 nm with a Synergy HT plate reader (BioTek, USA).
Data were analysed using Prism (Version 8.2.1; GraphPad Software, Inc, San Diego, CA, USA). Error bars in the graphs represented standard errors of means (SEM) of nine repeats from three independent tests. The statistical significance was calculated using two-way ANOVA and is indicated as ns (non-significant difference), * (p < 0.05), ** (p < 0.01), *** (p < 0.001), ****(p < 0.0001). The HC10, HC50 and IC50 values were calculated using the online tool AAT Bioquest (https://www.aatbio.com/index.html, accessed on 6 May 2022).

[15] = clinical isolated strain MRSA (B038 V1S1 A)
[16] = KPC-producing resistant strain E. coli (ATCC BAA-2340)
[17] = clinical isolated strain S. aureus (B042 V2E1 A)
[18] = KPC-producing resistant strain K. pneumoniae (ATCC BAA-1705)

VNVLDKIR-NH2 [VN-8, VNVLDKIR-NH2]
>512 µM: MBC (MRSA (B038 V1S1 A); [15]) | MIC (MRSA (B038 V1S1 A); [15]) | MBC (MRSA (ATCC CRM 12493) [1]; MRSA (ATCC CRM 12493)) | MIC (MRSA (ATCC CRM 12493) [1]; MRSA (ATCC CRM 12493)) | MBEC (MRSA (ATCC CRM 12493) [2]; biofilm eradication, MRSA (ATCC CRM 12493)) | MBIC (MRSA (ATCC CRM 12493) [2]; biofilm formation, MRSA (ATCC CRM 12493)) | MBC (E. coli (ATCC BAA-2340); [16]) | MIC (E. coli (ATCC BAA-2340); [16]) | MBC (E. coli (ATCC CRM 8739) [3]; E. coli (ATCC CRM 8739)) | MIC (E. coli (ATCC CRM 8739) [3]; E. coli (ATCC CRM 8739)) | MBEC ([4]; biofilm eradication, S. aureus (ATCC CRM 6538)) | MBIC ([4]; biofilm formation, S. aureus (ATCC CRM 6538)) | MBC (E. faecalis (NCTC 12697) [5]; E. faecalis (NCTC 12697)) | MIC (E. faecalis (NCTC 12697) [5]; E. faecalis (NCTC 12697)) | MBEC ([6]; biofilm eradication, K. pneumoniae (ATCC CRM 43816)) | MBIC ([6]; biofilm formation, K. pneumoniae (ATCC CRM 43816)) | MBC ([7]; S. aureus (ATCC CRM 6538)) | MIC ([7]; S. aureus (ATCC CRM 6538)) | MBC (S. aureus (B042 V2E1 A); [17]) | MIC (S. aureus (B042 V2E1 A); [17]) | MBC ([8]; C. albicans (ATCC CRM 10231)) | MIC ([8]; C. albicans (ATCC CRM 10231)) | MBEC (E. coli (ATCC CRM 8739) [9]; biofilm eradication, E. coli (ATCC CRM 8739)) | MBIC (E. coli (ATCC CRM 8739) [9]; biofilm formation, E. coli (ATCC CRM 8739)) | MBEC ([10]; biofilm eradication, P. aeruginosa (ATCC CRM 9027)) | MBIC ([10]; biofilm formation, P. aeruginosa (ATCC CRM 9027)) | MBC [11, 18] | MIC [11, 18] | MBC ([12]; K. pneumoniae (ATCC CRM 43816)) | MIC ([12]; K. pneumoniae (ATCC CRM 43816)) | MBEC (E. faecalis (NCTC 12697) [13]; biofilm eradication, E. faecalis (NCTC 12697)) | MBIC (E. faecalis (NCTC 12697) [13]; biofilm formation, E. faecalis (NCTC 12697)) | MBC ([14]; P. aeruginosa (ATCC CRM 9027)) | MIC ([14]; P. aeruginosa (ATCC CRM 9027))

FVNVLDKI-NH2 [FV-8, FVNVLDKI-NH2]
>512 µM: MBC (MRSA (B038 V1S1 A); B038 V1S1 A) | MIC (MRSA (B038 V1S1 A); B038 V1S1 A) | MBC (MRSA (ATCC CRM 12493) [1]; ATCC CRM 12493) | MIC (MRSA (ATCC CRM 12493) [1]; ATCC CRM 12493) | MBEC (MRSA (ATCC CRM 12493) [2]; ATCC CRM 12493, 24 h) | MBIC (MRSA (ATCC CRM 12493) [2]; ATCC CRM 12493, 24 h) | MBC (E. coli (ATCC BAA-2340); ATCC BAA-2340) | MIC (E. coli (ATCC BAA-2340); ATCC BAA-2340) | MBC (E. coli (ATCC CRM 8739) [3]; ATCC CRM 8739) | MIC (E. coli (ATCC CRM 8739) [3]; ATCC CRM 8739) | MBEC ([4]; ATCC CRM 6538, 24 h) | MBIC ([4]; ATCC CRM 6538, 24 h) | MBC (E. faecalis (NCTC 12697) [5]; NCTC 12697) | MIC (E. faecalis (NCTC 12697) [5]; NCTC 12697) | MBEC ([6]; ATCC CRM 43816, 24 h) | MBIC ([6]; ATCC CRM 43816, 24 h) | MBC ([7]; ATCC CRM 6538) | MIC ([7]; ATCC CRM 6538) | MBC (S. aureus (B042 V2E1 A); B042 V2E1 A) | MIC (S. aureus (B042 V2E1 A); B042 V2E1 A) | MBC ([8]; ATCC CRM 10231) | MIC ([8]; ATCC CRM 10231) | MBEC (E. coli (ATCC CRM 8739) [9]; ATCC CRM 8739, 24 h) | MBIC (E. coli (ATCC CRM 8739) [9]; ATCC CRM 8739, 24 h) | MBEC ([10]; ATCC CRM 9027, 24 h) | MBIC ([10]; ATCC CRM 9027, 24 h) | MBC ([11]; ATCC BAA-1705) | MIC ([11]; ATCC BAA-1705) | MBC ([12]; ATCC CRM 43816) | MIC ([12]; ATCC CRM 43816) | MBEC (E. faecalis (NCTC 12697) [13]; NCTC 12697, 24 h) | MBIC (E. faecalis (NCTC 12697) [13]; NCTC 12697, 24 h) | MBC ([14]; ATCC CRM 9027) | MIC ([14]; ATCC CRM 9027)
583.6 µM: HC10 (horse erythrocytes; red cells of horse, 2 h)
504.21 µM: HC10 (horse erythrocytes)
